Test results published in US10112918B2, “15-oxospiramilactone derivatives, preparation method and uses thereof” (Kunming Institute of Botany, The Chinese Academy of Sciences, priority 2013, dated 2018).
Where two headings read alike, the source gives them in different places.

Experiments:
Assay type in all cases: cell-based
[1] = system: SW-480 (human colon cancer cells); experiment: MTT inhibition of tumor cell growth, SW-480; details: Homo sapiens, SW480, 48 h
In short: (§1)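 Cells seeded at 5000-10000/well in DMEM or RPMI1640 with 10% FBS, exposed 48 h at 37 °C to compound (40 μM primary screen; 5-concentration re-screen for ~50% inhibitors), triplicates. MTT added 4 h, formazan dissolved in 10% SDS overnight, A595 read; IC50 by Reed-Muench two-point method.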

[2] = system: A-549 (Human lung adenocarcinoma cells); experiment: MTT inhibition of tumor cell growth, A-549; details: Homo sapiens, A549, 48 h
In short: as §1

[3] = system: HL-60 (human promyelocytic leukemia cells); experiment: MTT inhibition of tumor cell growth, HL-60; details: Homo sapiens, HL-60, 48 h
In short: as §1

[4] = system: SMMC-7721 (human hepatoma cells); experiment: MTT inhibition of tumor cell growth, SMMC-7721; details: Homo sapiens, SMMC-7721, 48 h
In short: as §1

[5] = system: Wnt signaling pathway (Top-Flash reporter gene); experiment: Top-Flash Wnt reporter gene assay in HEK293T cells with Wnt3a conditioned medium; details: Homo sapiens, HEK-293T, 6 h, HEK293T, Wnt3a conditioned medium, 6 h
In short: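 IC50 is the concentration giving relative residual reporter activity of 0.5 by 4-parameter logistic fit, after subtracting conditioned-medium DMSO background and normalizing to Wnt-induced signal. Luciferase read from HEK293T carrying TOP-flash and GFP internal standard, exposed 6 h to L-cell Wnt3a conditioned medium plus compound.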

[6] = system: MCF-7 (human breast cancer cells); experiment: MTT inhibition of tumor cell growth, MCF-7; details: Homo sapiens, MCF7, 48 h
In short: as §1

[7] = Table 2, derivatives having potential Michael reaction acceptor, read-out: IC50 SW-480
[8] = Table 4, derivatives obtained by reduction of the lactonic ring, read-out: IC50 SW-480
[9] = Table 6, 7-carbonyl derivatives, read-out: IC50 SW-480, 7-carbonyl derivatives
[10] = Table 2, derivatives having potential Michael reaction acceptor
[11] = Table 4, derivatives obtained by reduction of the lactonic ring
[12] = Table 8, read-out: IC50 (μM), inhibitory activity on the Wnt signaling pathway
[13] = Table 9, read-out: IC50(μM), inhibitory activity on the Wnt signaling pathway
[14] = Table 5, derivatives having double Michael reaction acceptor, read-out: IC50 SW-480
[15] = Table 6, double Michael reaction acceptor derivatives, read-out: IC50 SW-480, derivatives having double Michael reaction acceptor
[16] = Table 5, derivatives having double Michael reaction acceptor
[17] = Table 10, read-out: IC50 (μM), inhibitory activity on the Wnt signaling pathway

Row | IC50 [1, 7] | IC50 [1, 8] | IC50 [2, 10] | IC50 [2, 11] | IC50 [3, 10] | IC50 [3, 11] | IC50 [4, 10] | IC50 [4, 11] | IC50 [6, 10] | IC50 [6, 11] | IC50 [5, 13] | Compound | also measured
1 | 3.74 µM | 3.74 µM | 2.95 µM | 2.95 µM | 3.38 µM | 3.38 µM | 3.91 µM | 3.91 µM | 3.38 µM | 3.38 µM | – | C=C1C(=O)C23CC[C@H]1CC2[C@]1(COC(C)=O)CCC[C@@](C)(COC(C)=O)C1CC3=O (stereo partly drawn) [Compound 47] | IC50 [1, 9]: 3.67 µM; IC50 [5, 12]: 16.9 ± 1.89 µM
2 | 3.94 µM | – | 3.04 µM | – | 5.03 µM | – | 6.13 µM | – | 2.93 µM | – | 46.9 ± 1.26 µM | C=C1C(=O)C23CC[C@H]1CC2[C@]1(COC(C)=O)CCC[C@@](C)(COC(C)=O)C1[C@H](CO)C3=O (stereo partly drawn) [Compound 48] | –
3 | 15.5 µM | – | 11 µM | – | 6.5 µM | – | 14 µM | – | 12.8 µM | – | 58.2 ± 1.18 µM | C=C1C(=O)C23CC[C@H]1CC2[C@]1(COC(C)=O)CCC[C@@](C)(COC(C)=O)C1[C@H](COS(C)(=O)=O)C3=O (stereo partly drawn) [Compound 49] | –
4 | 6.57 µM | – | 4.69 µM | – | 6.3 µM | – | 10.8 µM | – | 4.23 µM | – | 56 ± 0.92 µM | C=C1C(=O)C23CC[C@H]1CC2[C@]1(COC(C)=O)CCC[C@@](C)(COC(C)=O)C1[C@H](CN1CCOCC1)C3=O (stereo partly drawn) [Compound 50] | –
5 | 12.9 µM | – | 11.1 µM | – | 6.33 µM | – | 15.4 µM | – | 15.1 µM | – | > 60 µM | C=C1C(=O)C23CC[C@H]1CC2[C@]1(COC(C)=O)CCC[C@@](C)(COC(C)=O)C1[C@H](COC(C)=O)C3=O (stereo partly drawn) [Compound 52] | –
6 | – | – | – | – | – | – | – | – | – | – | 7.3 µM | C=C1C(=O)C23CC[C@@H](CC2[C@]2(COC(C)=O)CCC[C@@](C)(COC(C)=O)C12)C(=C)C3=O (stereo partly drawn) [Compound 53] | IC50 [1, 14]: 0.78 µM; IC50 [1, 15]: 0.78 µM; IC50 [2, 16]: 0.64 µM; IC50 [3, 16]: 1.21 µM; IC50 [4, 16]: 0.75 µM; IC50 [6, 16]: 0.65 µM
7 | – | 0.8 µM | – | 1.17 µM | – | 0.62 µM | – | 1.06 µM | – | 0.65 µM | – | C=C1C(=O)C23CC[C@H]1CC2[C@]1(COCC#N)CCC[C@@](C)(COC(=O)c2cccs2)C1CC3=O (stereo partly drawn) [Compound 55] | IC50 [5, 17]: 12.1 ± 1.25 µM
8 | – | 2.94 µM | – | 4.21 µM | – | 4.18 µM | – | 3.95 µM | – | 3.31 µM | – | C=C1C(=O)[C@]23CC[C@H]1CC2[C@]1(COC(=O)N2CCOCC2)CCC[C@@](C)(COS(C)(=O)=O)C1CC3=O (stereo partly drawn) [Compound 59] | IC50 [5, 17]: 43.8 ± 3.05 µM
9 | – | 3.37 µM | – | 2.32 µM | – | 2.7 µM | – | 2.18 µM | – | 2.05 µM | – | C=C1C(=O)C23CC[C@H]1CC2[C@]1(COS(C)(=O)=O)CCC[C@@](C)(COC(=O)N2CCOCC2)C1CC3=O (stereo partly drawn) [Compound 61] | IC50 [5, 17]: 32.3 ± 3.01 µM
10 | – | 0.59 µM | – | 0.7 µM | – | 0.61 µM | – | 0.57 µM | – | 0.67 µM | – | C=C1C(=O)C23CC[C@H]1CC2[C@]1(COC(=O)c2cccs2)CCC[C@@](C)(COC(=O)c2cccs2)C1CC3=O (stereo partly drawn) [Compound 64] | IC50 [1, 9]: 0.71 µM; IC50 [5, 12]: 7.83 ± 0.7 µM
11 | – | – | – | – | – | – | – | – | – | – | 7.68 ± 0.19 µM | C=C1C(=O)C23CC[C@@H](CC2[C@]2(COC(=O)c4cccs4)CCC[C@@](C)(COC(=O)c4cccs4)C12)C(=C)C3=O (stereo partly drawn) [Compound 65] | IC50 [1, 14]: 0.16 µM; IC50 [1, 15]: 0.26 µM; IC50 [2, 16]: 0.35 µM; IC50 [3, 16]: 0.29 µM; IC50 [4, 16]: 0.22 µM; IC50 [6, 16]: 0.33 µM
